Source: the supplement of paper PMC10307832

How the values were obtained:
Assay in all cases: relative viability (nuclei count vs DMSO), 5 days (fraction); higher = more cells survive
[1] = system: 201T
In short: (§1)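 One day after seeding in 1536-well plates, lung cancer cell lines were dosed by pin tool. Dosing was either single-drug or a fixed anchor-drug dose plus five library-drug doses (not always all listed) in √10 steps. After 5 days, nuclei were stained in one fix-and-stain step and counted on 4× images, and relative viability is the nuclei count of treated wells over that of vehicle wells, given as the median of duplicate plates.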

[2] = system: BEN
In short: as §1

[3] = system: EMC-BAC-2
In short: as §1

[4] = system: HARA
In short: as §1

[5] = system: LCLC-103H
In short: as §1

[6] = system: LOU-NH91
In short: as §1

[7] = system: NCI-H1395
In short: as §1

[8] = system: NCI-H1993
In short: as §1

[9] = system: NCI-H2023
In short: as §1

[10] = system: NCI-H2087
In short: as §1

[11] = system: NCI-H2126
In short: as §1

[12] = system: NCI-H2347
In short: as §1

[13] = system: NCI-H23
In short: as §1

[14] = system: NCI-H3122
In short: as §1

[15] = system: NCI-H441
In short: as §1

[16] = system: NCI-H522
In short: as §1

[17] = system: NCI-H596
In short: as §1

[18] = system: NCI-H647
In short: as §1

[19] = system: NCI-H650
In short: as §1

[20] = system: NCI-H727
In short: as §1

[21] = system: NCI-H838
In short: as §1

SMILES: O=c1cc(N2CCOCC2)oc2c(-c3cccc4c3sc3ccccc34)cccc12 + Cc1nc(Nc2ncc(C(=O)Nc3c(C)cccc3Cl)s2)cc(N2CCN(CCO)CC2)n1 [Dasatinib] (partner 0.075 µM)
- relative viability ([1]; first compound 0.01 µM): 0.592
- relative viability ([1]; first compound 0.03162 µM): 0.592
- relative viability ([1]; first compound 0.1 µM): 0.596
- relative viability ([1]; first compound 0.3162 µM): 0.505
- relative viability ([1]; first compound 1 µM): 0.596
- relative viability ([2]; first compound 0.01 µM): 0.317
- relative viability ([2]; first compound 0.03162 µM): 0.362
- relative viability ([2]; first compound 0.1 µM): 0.3
- relative viability ([2]; first compound 0.3162 µM): 0.354
- relative viability ([2]; first compound 1 µM): 0.266
- relative viability ([3]; first compound 0.01 µM): 0.366
- relative viability ([3]; first compound 0.03162 µM): 0.32
- relative viability ([3]; first compound 0.1 µM): 0.342
- relative viability ([3]; first compound 0.3162 µM): 0.371
- relative viability ([3]; first compound 1 µM): 0.344
- relative viability ([4]; first compound 0.01 µM): 0.208
- relative viability ([4]; first compound 0.03162 µM): 0.282
- relative viability ([4]; first compound 0.1 µM): 0.276
- relative viability ([4]; first compound 0.3162 µM): 0.268
- relative viability ([4]; first compound 1 µM): 0.243
- relative viability ([5]; first compound 0.01 µM): 0.491
- relative viability ([5]; first compound 0.03162 µM): 0.412
- relative viability ([5]; first compound 0.1 µM): 0.539
- relative viability ([5]; first compound 0.3162 µM): 0.449
- relative viability ([5]; first compound 1 µM): 0.401
- relative viability ([6]; first compound 0.01 µM): 0.546
- relative viability ([6]; first compound 0.03162 µM): 0.55
- relative viability ([6]; first compound 0.1 µM): 0.537
- relative viability ([6]; first compound 0.3162 µM): 0.584
- relative viability ([6]; first compound 1 µM): 0.563
- relative viability ([7]; first compound 0.01 µM): 0.422
- relative viability ([7]; first compound 0.03162 µM): 0.393
- relative viability ([7]; first compound 0.1 µM): 0.407
- relative viability ([7]; first compound 0.3162 µM): 0.367
- relative viability ([7]; first compound 1 µM): 0.454
- relative viability ([8]; first compound 0.01 µM): 0.603
- relative viability ([8]; first compound 0.03162 µM): 0.595
- relative viability ([8]; first compound 0.1 µM): 0.657
- relative viability ([8]; first compound 0.3162 µM): 0.554
- relative viability ([8]; first compound 1 µM): 0.597
- relative viability ([9]; first compound 0.01 µM): 0.523
- relative viability ([9]; first compound 0.03162 µM): 0.677
- relative viability ([9]; first compound 0.1 µM): 0.612
- relative viability ([9]; first compound 0.3162 µM): 0.551
- relative viability ([9]; first compound 1 µM): 0.513
- relative viability ([10]; first compound 0.01 µM): 0.989
- relative viability ([10]; first compound 0.03162 µM): 1.02
- relative viability ([10]; first compound 0.1 µM): 0.917
- relative viability ([10]; first compound 0.3162 µM): 0.89
- relative viability ([10]; first compound 1 µM): 0.887
- relative viability ([11]; first compound 0.01 µM): 0.66
- relative viability ([11]; first compound 0.03162 µM): 0.631
- relative viability ([11]; first compound 0.1 µM): 0.609
- relative viability ([11]; first compound 0.3162 µM): 0.611
- relative viability ([11]; first compound 1 µM): 0.533
- relative viability ([12]; first compound 0.01 µM): 0.316
- relative viability ([12]; first compound 0.03162 µM): 0.284
- relative viability ([12]; first compound 0.1 µM): 0.265
- relative viability ([12]; first compound 0.3162 µM): 0.315
- relative viability ([12]; first compound 1 µM): 0.283
- relative viability ([13]; first compound 0.01 µM): 0.828
- relative viability ([13]; first compound 0.03162 µM): 0.911
- relative viability ([13]; first compound 0.3162 µM): 0.815
- relative viability ([13]; first compound 1 µM): 0.857
- relative viability ([14]; first compound 0.01 µM): 0.667
- relative viability ([14]; first compound 0.03162 µM): 0.836
- relative viability ([14]; first compound 0.1 µM): 0.753
- relative viability ([14]; first compound 0.3162 µM): 0.764
- relative viability ([14]; first compound 1 µM): 0.751
- relative viability ([15]; first compound 0.01 µM): 0.623
- relative viability ([15]; first compound 0.03162 µM): 0.676
- relative viability ([15]; first compound 0.1 µM): 0.594
- relative viability ([15]; first compound 0.3162 µM): 0.492
- relative viability ([15]; first compound 1 µM): 0.574
- relative viability ([16]; first compound 0.01 µM): 1.01
- relative viability ([16]; first compound 0.03162 µM): 0.915
- relative viability ([16]; first compound 0.1 µM): 0.797
- relative viability ([16]; first compound 0.3162 µM): 0.859
- relative viability ([16]; first compound 1 µM): 0.745
- relative viability ([17]; first compound 0.01 µM): 0.711
- relative viability ([17]; first compound 0.03162 µM): 0.574
- relative viability ([17]; first compound 0.1 µM): 0.561
- relative viability ([17]; first compound 0.3162 µM): 0.558
- relative viability ([17]; first compound 1 µM): 0.648
- relative viability ([18]; first compound 0.01 µM): 0.239
- relative viability ([18]; first compound 0.03162 µM): 0.18
- relative viability ([18]; first compound 0.1 µM): 0.0909
- relative viability ([18]; first compound 0.3162 µM): 0.224
- relative viability ([18]; first compound 1 µM): 0.211
- relative viability ([19]; first compound 0.03162 µM): 0.493
- relative viability ([19]; first compound 0.1 µM): 0.314
- relative viability ([19]; first compound 0.3162 µM): 0.512
- relative viability ([19]; first compound 1 µM): 0.405
- relative viability ([20]; first compound 0.01 µM): 0.466
- relative viability ([20]; first compound 0.03162 µM): 0.292
- relative viability ([20]; first compound 0.1 µM): 0.456
- relative viability ([20]; first compound 0.3162 µM): 0.367
- relative viability ([20]; first compound 1 µM): 0.38
- relative viability ([21]; first compound 0.01 µM): 0.278
- relative viability ([21]; first compound 0.03162 µM): 0.301
- relative viability ([21]; first compound 0.1 µM): 0.319
- relative viability ([21]; first compound 0.3162 µM): 0.294
- relative viability ([21]; first compound 1 µM): 0.271
